# Measured values as given in patent US11053204B2, “Pyrimidinyloxy benzene derivatives as herbicides” (FMC Corporation, priority 2015, dated 2021).
# Columns and labels:
# Type in all cases: in vivo
# [1] = system: ragweed (common ragweed, Ambrosia elatior); assay: Test A preemergence, visual injury rating; conditions: for Plant response rating, Ragweed: 31 g ai/ha, 0 to 100 scale, 0 no effect, 100 complete control; for Ragweed plant response rating: 0 to 100 scale (0 no effect, 100 complete control)
# Procedure, shortened: (§1)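 Compounds in non-phytotoxic solvent with surfactant applied as soil spray preemergence, or postemergence to plants 2-10 cm at one- to two-leaf stage, in loam/sand. After approximately 10 days in greenhouse, injury rated visually versus untreated controls, 0 (no effect) to 100 (complete control).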
# [2] = system: giant foxtail (Setaria faberii); assay: Test A preemergence, visual injury rating; conditions: for Plant response rating, Foxtail, Giant: 31 g ai/ha, 0 to 100 scale, 0 no effect, 100 complete control; for Foxtail, Giant plant response rating: 0 to 100 scale (0 no effect, 100 complete control)
# Procedure, shortened: as §1
# [3] = system: barnyardgrass (Echinochloa crus-galli); assay: Test A preemergence, visual injury rating; conditions: for Plant response rating, Barnyardgrass: 31 g ai/ha, 0 to 100 scale, 0 no effect, 100 complete control; for Barnyardgrass plant response rating: 0 to 100 scale (0 no effect, 100 complete control)
# Procedure, shortened: as §1
# [4] = system: Italian ryegrass (Lolium multiflorum); assay: Test A preemergence, visual injury rating; conditions: for Plant response rating, Ryegrass, Italian: 31 g ai/ha, 0 to 100 scale, 0 no effect, 100 complete control; for Ryegrass, Italian plant response rating: 0 to 100 scale (0 no effect, 100 complete control)
# Procedure, shortened: as §1
# [5] = system: pigweed (Amaranthus retroflexus); assay: Test A preemergence, visual injury rating; conditions: for Plant response rating, Pigweed: 31 g ai/ha, 0 to 100 scale, 0 no effect, 100 complete control; for Pigweed plant response rating: 0 to 100 scale (0 no effect, 100 complete control)
# Procedure, shortened: as §1
# kochia (Kochia scoparia) [6] = assay: Test A preemergence, visual injury rating; conditions: for Plant response rating, Kochia: 31 g ai/ha, 0 to 100 scale, 0 no effect, 100 complete control; for Kochia plant response rating: 0 to 100 scale (0 no effect, 100 complete control)
# Procedure, shortened: as §1
# [7] = system: sedge, umbrella (small-flower umbrella sedge, Cyperus difformis); assay: Test B flooded paddy test, plant response rating; conditions: 250 g ai/ha; Flood; scale of 0 to 100 where 0 is no effect and 100 is complete control; 13 to 15 days
# Procedure, shortened: (§2)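 Pots were flooded to 3 cm above the soil surface at treatment, compound applied directly to the paddy water, and that depth held throughout. Plants were kept in a greenhouse for 13 to 15 days, then visually rated against untreated controls.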
# [8] = system: barnyardgrass (Echinochloa crus-galli); assay: Test B flooded paddy test, plant response rating; conditions: 250 g ai/ha; Flood; scale of 0 to 100 where 0 is no effect and 100 is complete control; 13 to 15 days
# Procedure, shortened: as §2
# [9] = system: ducksalad (Heteranthera limosa); assay: Test B flooded paddy test, plant response rating; conditions: 250 g ai/ha; Flood; scale of 0 to 100 where 0 is no effect and 100 is complete control; 13 to 15 days
# Procedure, shortened: as §2
# rice (Oryza sativa) = assay: Test B flooded paddy test, plant response rating; conditions: 250 g ai/ha; Flood; scale of 0 to 100 where 0 is no effect and 100 is complete control; 13 to 15 days
# Procedure, shortened: as §2
# [10] = system: ragweed (common ragweed, Ambrosia elatior); assay: Test A postemergence, visual injury rating; conditions: 0 is no effect, 100 is complete control; for Ragweed plant response rating: 31 g ai/ha, 0 to 100 scale, approximately 10 days
# Procedure, shortened: as §1
# [11] = system: giant foxtail (Setaria faberii); assay: Test A postemergence, visual injury rating; conditions: 0 is no effect, 100 is complete control; for Foxtail, Giant plant response rating: 31 g ai/ha, 0 to 100 scale, approximately 10 days
# Procedure, shortened: as §1
# [12] = system: barnyardgrass (Echinochloa crus-galli); assay: Test A postemergence, visual injury rating; conditions: 0 is no effect, 100 is complete control; for Barnyardgrass plant response rating: 31 g ai/ha, 0 to 100 scale, approximately 10 days
# Procedure, shortened: as §1
# [13] = system: galium (catchweed bedstraw, Galium aparine); assay: Test A postemergence, visual injury rating; conditions: 0 is no effect, 100 is complete control; for Galium plant response rating: 31 g ai/ha, 0 to 100 scale, approximately 10 days
# Procedure, shortened: as §1
# corn (Zea mays) = assay: Test A postemergence, visual injury rating; conditions: 0 is no effect, 100 is complete control; for Corn plant response rating: 31 g ai/ha, 0 to 100 scale, approximately 10 days
# Procedure, shortened: as §1
# [14] = system: blackgrass (Alopecurus myosuroides); assay: Test A postemergence, visual injury rating; conditions: 0 is no effect, 100 is complete control; for Blackgrass plant response rating: 31 g ai/ha, 0 to 100 scale, approximately 10 days
# Procedure, shortened: as §1
# [15] = system: Italian ryegrass (Lolium multiflorum); assay: Test A postemergence, visual injury rating; conditions: 0 is no effect, 100 is complete control; for Ryegrass, Italian plant response rating: 31 g ai/ha, 0 to 100 scale, approximately 10 days
# Procedure, shortened: as §1
# [16] = system: pigweed (Amaranthus retroflexus); assay: Test A postemergence, visual injury rating; conditions: 0 is no effect, 100 is complete control; for Pigweed plant response rating: 31 g ai/ha, 0 to 100 scale, approximately 10 days
# Procedure, shortened: as §1
# kochia (Kochia scoparia) [17] = assay: Test A postemergence, visual injury rating; conditions: 0 is no effect, 100 is complete control; for Kochia plant response rating: 31 g ai/ha, 0 to 100 scale, approximately 10 days
# Procedure, shortened: as §1
# [18] = system: wheat (Triticum aestivum); assay: Test A postemergence, visual injury rating; conditions: 0 is no effect, 100 is complete control; for Wheat plant response rating: 31 g ai/ha, 0 to 100 scale, approximately 10 days
# Procedure, shortened: as §1
Compound,Ragweed plant response rating ([1]; 125 g ai/ha),"Foxtail, Giant plant response rating ([2]; 125 g ai/ha)",Barnyardgrass plant response rating ([3]; 125 g ai/ha),"Ryegrass, Italian plant response rating ([4]; 125 g ai/ha)",Pigweed plant response rating ([5]; 125 g ai/ha),Kochia plant response rating (kochia (Kochia scoparia) [6]; 125 g ai/ha),"Plant response rating, Sedge, Umbrella [7]","Plant response rating, Barnyardgrass [8]","Plant response rating, Ducksalad [9]","Plant response rating, Rice (rice (Oryza sativa))",Ragweed plant response rating (0 to 100 scale) ([10]; 125 g ai/ha),"Foxtail, Giant plant response rating (0 to 100 scale) ([11]; 125 g ai/ha)",Barnyardgrass plant response rating (0 to 100 scale) ([12]; 125 g ai/ha),Galium plant response rating (0 to 100 scale) ([13]; 125 g ai/ha),Corn plant response rating (0 to 100 scale) (corn (Zea mays); 125 g ai/ha),Blackgrass plant response rating (0 to 100 scale) ([14]; 125 g ai/ha),"Ryegrass, Italian plant response rating (0 to 100 scale) ([15]; 125 g ai/ha)",Pigweed plant response rating (0 to 100 scale) ([16]; 125 g ai/ha),Kochia plant response rating (0 to 100 scale) (kochia (Kochia scoparia) [17]; 125 g ai/ha),Wheat plant response rating (0 to 100 scale) ([18]; 125 g ai/ha),also measured
C=CC(C)COC(=O)c1c(Br)cccc1Oc1ncc(Cl)cn1 (stereo not drawn) [Compound 37],0,70,30,0,0,0,0,0,0,0,0,40,30,40,10,30,0,80,40,0,"Plant response rating, Ragweed [1]: 0; Plant response rating, Foxtail, Giant [2]: 20; Plant response rating, Barnyardgrass [3]: 0; Plant response rating, Ryegrass, Italian [4]: 0; Plant response rating, Pigweed [5]: 0; Plant response rating, Kochia (kochia (Kochia scoparia) [6]): 0; Ragweed plant response rating [10]: 0; Foxtail, Giant plant response rating [11]: 0; Barnyardgrass plant response rating [12]: 0; Galium plant response rating [13]: 10; Corn plant response rating (corn (Zea mays)): 0; Blackgrass plant response rating [14]: 0; Ryegrass, Italian plant response rating [15]: 0; Pigweed plant response rating [16]: 20; Kochia plant response rating (kochia (Kochia scoparia) [17]): 0; Wheat plant response rating [18]: 0"
O=C(OCC(F)(F)F)c1c(F)cccc1Oc1ncc(Cl)cn1 [Compound 48],0,0,0,0,0,0,0,20,0,20,0,0,0,0,0,0,0,20,0,0,"Ragweed plant response rating ([1]; 500 g ai/ha): 0; Foxtail, Giant plant response rating ([2]; 500 g ai/ha): 10; Barnyardgrass plant response rating ([3]; 500 g ai/ha): 10; Ryegrass, Italian plant response rating ([4]; 500 g ai/ha): 0; Pigweed plant response rating ([5]; 500 g ai/ha): 0; Kochia plant response rating (kochia (Kochia scoparia) [6]; 500 g ai/ha): 0; Ragweed plant response rating (0 to 100 scale) ([10]; 500 g ai/ha): 0; Foxtail, Giant plant response rating (0 to 100 scale) ([11]; 500 g ai/ha): 20; Barnyardgrass plant response rating (0 to 100 scale) ([12]; 500 g ai/ha): 30; Galium plant response rating (0 to 100 scale) ([13]; 500 g ai/ha): 10; Corn plant response rating (0 to 100 scale) (corn (Zea mays); 500 g ai/ha): 0; Blackgrass plant response rating (0 to 100 scale) ([14]; 500 g ai/ha): 20; Ryegrass, Italian plant response rating (0 to 100 scale) ([15]; 500 g ai/ha): 0; Pigweed plant response rating (0 to 100 scale) ([16]; 500 g ai/ha): 40; Kochia plant response rating (0 to 100 scale) (kochia (Kochia scoparia) [17]; 500 g ai/ha): 0; Wheat plant response rating (0 to 100 scale) ([18]; 500 g ai/ha): 0"
O=C(OC(CCl)CCl)c1c(Br)cccc1Oc1ncc(Cl)cn1 [Compound 36],0,0,0,0,0,0,0,0,0,0,0,0,0,0,0,0,0,60,0,0,"Plant response rating, Ragweed [1]: 0; Plant response rating, Foxtail, Giant [2]: 0; Plant response rating, Barnyardgrass [3]: 0; Plant response rating, Ryegrass, Italian [4]: 0; Plant response rating, Pigweed [5]: 0; Plant response rating, Kochia (kochia (Kochia scoparia) [6]): 0; Ragweed plant response rating [10]: 0; Foxtail, Giant plant response rating [11]: 0; Barnyardgrass plant response rating [12]: 0; Galium plant response rating [13]: 0; Corn plant response rating (corn (Zea mays)): 0; Blackgrass plant response rating [14]: 0; Ryegrass, Italian plant response rating [15]: 0; Pigweed plant response rating [16]: 0; Kochia plant response rating (kochia (Kochia scoparia) [17]): 0; Wheat plant response rating [18]: 0"
